Patent US20260207649A1, “LSD1 INHIBITOR AND PRMT6 INHIBITOR FOR USE IN THE TREATMENT OF A DISEASE ASSOCIATED WITH GAIN-OF-FUNCTION OF ANDROGEN RECEPTOR (AR) AND/OR WITH OVEREXPRESSION OF AN AR COACTIVATOR” (FONDAZIONE TELETHON ETS(30%), priority 2022, published 2026)
Where two headings read alike, the source gives them in different places.

Assays:
[1] = tested on: polyQ-expanded AR; test: Transcriptional (ARE-luciferase) assay in HEK293T cells expressing polyQ-expanded AR; format: cell-based, human; settings: AR65Q, DHT 10 nM, 16 h; for polyQ-expanded AR transactivation induced by DHT: mock-transfected, inhibitor 10 μM
Procedure: (§1) Cell Cultures, Transfection, and Transduction MN1^9 and HEK293T (ATCC) cells were cultured and plated in DMEM complete medium [Dulbecco's Modified Eagle Medium supplemented with 10% fetal bovine serum (FBS), 1% penicillin/streptomycin (pen/strep), and 1% L-glutamine] and LNCaP cells in RPMI complete medium (Gibco Roswell Park Memorial Institute supplemented with 10% FBS, 1% penicillin/streptomycin, and 1% L-glutamine). C2C12 cells were cultured and differentiated to myotubes. Cells were kept in a humidified incubator with 5% CO2 at 37° C. HEK293T cells were transfected with polyethyleneimine (PEI) linear MW 25,000 Da (Sigma-Aldrich) according to well dimensions. DNA: PEI (0.5% v/v) ratio was 1:1. At 24 hours after the transfection the DMEM complete medium supplemented with 10% FBS was changed with DMEM supplemented with charcoal stripped FBS and cells were treated with vehicle (ethanol) or 10 nM DHT and harvested for the different analysis 24 h after the treatment. For the pharmacological inhibition, we treated cells with the LSD1 catalytic inhibitor tranylcypromine (TCP) and the PRMT inhibitor adenosine dialdehyde (AdOx) both at a final concentration of 10 μM, instead for the selective LSD1 inhibitor SP-2509, we used it at a final concentration of 100 nm. MN-1 cells were transfected with Lipofectamine 2000 according to manufacturer instructions (Thermo Fisher). MN1 and LNCaP cells were transiently transduced with lentiviruses (MOI 30) or transfected with 2 μg DNA using Lipofectamine 2000 CD Transfection Reagent (ThermoFisher Scientific, 12566014). The following day, positively transfected cells were selected with […] Blasticidin (PanReacApplichem, A3784,0025). After 24 hours of selection or at 48 hours post-transduction, cells were induced with 10 nM dihydrotestosterone (DHT) in DMEM or RPMI medium supplemented with 10% charcoal-stripped FBS, 1% pen/strep, and 1% L-glutamine. The SBMA iPSCs were derived and differentiated. iPSCs were maintained on Matrigel (Corning, 354277) coated tissue culture dishes in E8 Flex medium (Thermo Fisher, A2858501). […]

[2] = tested on: AR100Q mice; settings: three times a week, from week 4
Procedure: A randomized cohort of male transgenic AR100Q mice and WT siblings was assigned to either control or treated group.
Phenelzine was administered at a dose of 30 mg/Kg in drinking water; three times a week; TCP was administered at a dose of 6 mg/Kg intraperitoneal, three times a week.
Mice were randomized and the operators were blind for genotype and treatment. The phenotype was analyzed by looking at muscle strength with grip strength test.

[3] = tested on: normal AR; test: Transcriptional (ARE-luciferase) assay in HEK293T cells expressing normal AR; format: cell-based, human; settings: AR24Q, mock-transfected, DHT 10 nM, 16 h, inhibitor 10 μM
Procedure: Cell Cultures, Transfection, and Transduction MN1^9 and HEK293T (ATCC) cells were cultured and plated in DMEM complete medium [Dulbecco's Modified Eagle Medium supplemented with 10% fetal bovine serum (FBS), 1% penicillin/streptomycin (pen/strep), and 1% L-glutamine] and LNCaP cells in RPMI complete medium (Gibco Roswell Park Memorial Institute supplemented with 10% FBS, 1% penicillin/streptomycin, and 1% L-glutamine). C2C12 cells were cultured and differentiated to myotubes. Cells were kept in a humidified incubator with 5% CO2 at 37° C. HEK293T cells were transfected with polyethyleneimine (PEI) linear MW 25,000 Da (Sigma-Aldrich) according to well dimensions. DNA: PEI (0.5% v/v) ratio was 1:1. At 24 hours after the transfection the DMEM complete medium supplemented with 10% FBS was changed with DMEM supplemented with charcoal stripped FBS and cells were treated with vehicle (ethanol) or 10 nM DHT and harvested for the different analysis 24 h after the treatment. […] MN-1 cells were transfected with Lipofectamine 2000 according to manufacturer instructions (Thermo Fisher). […] The following day, positively transfected cells were selected with […] Blasticidin (PanReacApplichem, A3784,0025). […]

[4] = tested on: AR; test: Transcriptional assay in HEK293T cells expressing AR24Q or AR65Q, with LSD1/PRMT6 overexpression or CRISPR silencing; format: cell-based, human; settings: 16 h, inhibitor 10 μM; for effect of overexpression of LSD1 on AR transactivation: AR24Q and AR65Q with LSD1, DHT 10 nM; for effect of overexpression of PRMT6 on AR transactivation: AR24Q and AR65Q with PRMT6, DHT 10 nM
Procedure: Cell Cultures, Transfection, and Transduction MN1^9 and HEK293T (ATCC) cells were cultured and plated in DMEM complete medium [Dulbecco's Modified Eagle Medium supplemented with 10% fetal bovine serum (FBS), 1% penicillin/streptomycin (pen/strep), and 1% L-glutamine] and LNCaP cells in RPMI complete medium (Gibco Roswell Park Memorial Institute supplemented with 10% FBS, 1% penicillin/streptomycin, and 1% L-glutamine). C2C12 cells were cultured and differentiated to myotubes. Cells were kept in a humidified incubator with 5% CO2 at 37° C. HEK293T cells were transfected with polyethyleneimine (PEI) linear MW 25,000 Da (Sigma-Aldrich) according to well dimensions. DNA: PEI (0.5% v/v) ratio was 1:1. At 24 hours after the transfection the DMEM complete medium supplemented with 10% FBS was changed with DMEM supplemented with charcoal stripped FBS and cells were treated with vehicle (ethanol) or 10 nM DHT and harvested for the different analysis 24 h after the treatment. […] MN-1 cells were transfected with Lipofectamine 2000 according to manufacturer instructions (Thermo Fisher). […] The following day, positively transfected cells were selected with […] Blasticidin (PanReacApplichem, A3784,0025). After 24 hours of selection or at 48 hours post-transduction, cells were induced with 10 nM dihydrotestosterone (DHT) in DMEM or RPMI medium supplemented with 10% charcoal-stripped FBS, 1% pen/strep, and 1% L-glutamine. […] For differentiation stably transfected iPSCs were induced with Neural Induction Medium (NIM) containing […] doxycycline and 10 nM R1881. After 48 hours of doxycycline treatment, motor neurons were dissociated with accutase to single cells and re-plated on PDL/Laminin coated surfaces in Neural Differentiation Medium (NDM) containing […] doxycycline and 10 nM R1881. On day 4, half of the cell culture medium was removed and replaced by Neuron Medium (NM) containing 10 nM R1881.
Luciferase assays were performed. In brief, HEK293T cells were transfected with vectors expressing non-expanded and polyglutamine-expanded AR together with vectors expressing the luciferase reporter gene under the control of a canonical androgen responsive element (ARE-Luc). To normalize data for transfection efficiency, the cells express Renilla reporter gene under the control of the timidine kinase (TK-Ren) transfected with ARE-Luc in a ratio of 1:10. Cells are treated with vehicle and DHT for 16 h and then processed for luciferase assay, as manufacturer's instructions (Promega).

[5] = target: AR24Q (human) (UniProt P10275); test: cell-based or functional assay
[6] = target: AR65Q (human) (UniProt P10275); test: cell-based or functional assay
[7] = tested on: Lsd1; test: Western blots of LSD1 in MN1 cells transfected with amiR vectors; format: cell-based, mouse
Procedure: as §1, with “L-glutamine.” for “L-glutamine. The SBMA iPSCs were derived and differentiated. iPSCs were maintained on Matrigel (Corning, 354277) coated tissue culture dishes in E8 Flex medium (Thermo Fisher, A2858501).”
(§2) The protein concentration was measured using the bicinchoninic acid (BCA) assay method (Pierce™ BCA® Protein Assay, Thermo Scientific). […]

[8] = tested on: Prmt6; test: Western blots of PRMT6 in MN1 cells transfected with amiR vectors; format: cell-based, mouse
Procedure: as §1, with “L-glutamine.” for “L-glutamine. The SBMA iPSCs were derived and differentiated. iPSCs were maintained on Matrigel (Corning, 354277) coated tissue culture dishes in E8 Flex medium (Thermo Fisher, A2858501).”
as §2

C/C(=N\NC(=O)c1cccc(S(=O)(=O)N2CCOCC2)c1)c1cc(Cl)ccc1O [SP-2509]
polyQ-expanded AR transactivation ([1]; inhibitor 100 nM): did not modify

NNCCc1ccccc1 [Phenelzine, phenelzine]
phenotype of AR100Q mice (grip strength normalized to body weight) ([2]; 30 mg/Kg in drinking water): ameliorated

N[C@@H]1C[C@H]1c1ccccc1 (racemic) [TCP, tranylcypromine]
normal AR transactivation induced by DHT [3]: reduced
polyQ-expanded AR transactivation induced by DHT [1]: reduced
effect of overexpression of LSD1 on AR transactivation [4]: reduced
effect of overexpression of PRMT6 on AR transactivation [4]: attenuated
phenotype of AR100Q mice (grip strength normalized to body weight) ([2]; 6 mg/Kg intraperitoneal): ameliorated

Nc1ncnc2c1ncn2C(C=O)OC(C=O)CO (stereo not shown) [AdOx, adenosine dialdehyde]
normal AR transactivation induced by DHT [3]: reduced
polyQ-expanded AR transactivation induced by DHT [1]: reduced
effect of overexpression of LSD1 on AR transactivation [4]: reduced
effect of overexpression of PRMT6 on AR transactivation [4]: attenuated

protein arginine methyltransferase 6 (PRMT6) (from UniProt Q96LA8 1-375)
AR transactivation (transcriptional assay, HEK293T cells) [5]: 3.1 fold
AR transactivation (transcriptional assay, HEK293T cells) [6]: 3.4 fold

B1: amiR-Lsd1 #1: artificial miRNA targeting mouse Lsd1, oligos SEQ ID NO: 153, 154 (nucleic acid)
chain 1: TGCTGTTTCTCTGTATTCTACCTTGGGTTTTGGCCACTGACTGACCCAAGGTAATACAGAGAAA
chain 2: CCTGTTTCTCTGTATTACCTTGGGTCAGTCAGTGGCCAAAACCCAAGGTAGAATACAGAGAAAC
modifications: expressed or natural sequence
silencing of Lsd1 expression [7]: 50%

B2: amiR-Lsd1 #2: artificial miRNA targeting mouse Lsd1, oligos SEQ ID NO: 155, 156 (nucleic acid)
chain 1: TGCTGTTTACTTGTTTGCTGACGACAGTTTTGGCCACTGACTGACTGTCGTCAAAACAAGTAAA
chain 2: CCTGTTTACTTGTTTTGACGACAGTCAGTCAGTGGCCAAAACTGTCGTCAGCAAACAAGTAAAC
modifications: expressed or natural sequence
silencing of Lsd1 expression [7]: 70%

B3: amiR-Lsd1 #3: artificial miRNA targeting mouse Lsd1, oligos SEQ ID NO: 234, 235 (nucleic acid)
chain 1: TGCTGTTGATGAGAGGTATACATCACGTTTTGGCCACTGACTGACGTGATGTACCTCTCATCAA
chain 2: CCTGTTGATGAGAGGTACATCACGTCAGTCAGTGGCCAAAACGTGATGTATACCTCTCATCAAC
modifications: expressed or natural sequence
silencing of Lsd1 expression [7]: 70%

B4: amiR-Prmt6 #2: artificial miRNA targeting mouse Prmt6, oligos SEQ ID NO: 141, 142 (nucleic acid)
chain 1: TGCTGCGGAGTAGCACTCGTAGTACAGTTTTGGCCACTGACTGACTGTACTACGTGCTACTCCG
chain 2: CCTGCGGAGTAGCACGTAGTACAGTCAGTCAGTGGCCAAAACTGTACTACGAGTGCTACTCCGC
modifications: expressed or natural sequence
silencing of Prmt6 [8]: ~ 50%

B5: amiR-Prmt6 #6: artificial miRNA targeting mouse Prmt6, oligos SEQ ID NO: 149, 150 (nucleic acid)
chain 1: TGCTGAATCAGACCATGTTGCCTTTCGTTTTGGCCACTGACTGACGAAAGGCAATGGTCTGATT
chain 2: CCTGAATCAGACCATTGCCTTTCGTCAGTCAGTGGCCAAAACGAAAGGCAACATGGTCTGATTC
modifications: expressed or natural sequence
silencing of Prmt6 [8]: ~ 50%

B6: amiR-Prmt6 #7: artificial miRNA targeting mouse Prmt6, oligos SEQ ID NO: 151, 152 (nucleic acid)
chain 1: TGCTGTATTAGATTAGAGTGCTCGCGGTTTTGGCCACTGACTGACCGCGAGCACTAATCTAATA
chain 2: CCTGTATTAGATTAGTGCTCGCGGTCAGTCAGTGGCCAAAACCGCGAGCACTCTAATCTAATAC
modifications: expressed or natural sequence
silencing of Prmt6 [8]: ~ 50%
